Measurements reported in patent publication US6737383B1, “Herbicidal oxadiazolidines” (priority 1999, dated 2004).

Experiments:
blackgrass = experiment: Test B pre/postemergence blackgrass; format: in vivo, Alopecurus myosuroides
Summary of the method: (§1)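 Herbicidal effect was estimated by eye on a ten-point control scale after plants spent twelve to sixteen days in a greenhouse following soil or foliar treatment. Foliar sprays targeted plants at one to four leaves; all doses were formulated in a non-phytotoxic solvent with surfactant.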

soybean = experiment: Test B pre/postemergence soybean; format: in vivo, Glycine max
Summary of the method: as §1

surinam grass = experiment: Test B pre/postemergence surinam grass; format: in vivo, Brachiaria decumbens
Summary of the method: as §1

purple nutsedge = experiment: Test B pre/postemergence purple nutsedge; format: in vivo, Cyperus rotundus
Summary of the method: as §1

bedstraw = experiment: Test B pre/postemergence bedstraw; format: in vivo, Galium aparine
Summary of the method: as §1

giant foxtail = experiment: Test B pre/postemergence giant foxtail; format: in vivo, Setaria faberii
Summary of the method: as §1

wheat = experiment: Test B pre/postemergence wheat; format: in vivo, Triticum aestivum
Summary of the method: as §1

rape = experiment: Test B pre/postemergence rape; format: in vivo, Brassica napus
Summary of the method: as §1

bamyardgrass = experiment: Test B flood test barnyardgrass; format: in vivo, Echinochloa crus-galli
Summary of the method: (§2)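 Each value is a visual injury score relative to controls, with 10 meaning complete control and 0 no effect. Evaluation took place twelve to sixteen days after the 2-leaf-stage plants were treated and kept in the greenhouse.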

velvetleaf = experiment: Test B pre/postemergence velvetleaf; format: in vivo, Abutilon theophrasti
Summary of the method: as §1

cocklebur = experiment: Test B pre/postemergence cocklebur; format: in vivo, Xanthium strumarium
Summary of the method: as §1

pigweed = experiment: Test B pre/postemergence pigweed; format: in vivo, Amaranthus retroflexus
Summary of the method: as §1

wild oat = experiment: Test B pre/postemergence wild oat; format: in vivo, Avena fatua
Summary of the method: as §1

duck salad = experiment: Test B flood test duck salad; format: in vivo, Heteranthera limosa
Summary of the method: as §2

smallflower flatsedge = experiment: Test B flood test smallflower flatsedge; format: in vivo, Cyperus difformis
Summary of the method: as §2

morningglory = experiment: Test B pre/postemergence morningglory; format: in vivo, Ipomoea hederacea
Summary of the method: as §1

[1] = Postemergence, Rate 125 g/ha, scale of 0 to 10 where 0 is no effect and 10 is complete control
[2] = Preemergence, Rate 62 g/ha, scale 0 to 10 (0 no effect, 10 complete control)
[3] = Preemergence, Rate 125 g/ha, 0 is no effect, 10 is complete control
[4] = Preemergence, Rate 250 g/ha, scale 0 to 10, 0 is no effect, 10 is complete control
[5] = Preemergence, Rate 500 g/ha, scale 0 to 10 (0 no effect, 10 complete control)
[6] = Rate 62 g/ha, Postemergence, scale of 0 to 10 where 0 is no effect and 10 is complete control
[7] = Rate 250 g/ha, Postemergence, scale 0 to 10, 0 is no effect, 10 is complete control
[8] = Rate 500 g/ha, Postemergence, scale 0 to 10
[9] = Postemergence (flood test species), Rate 125 g/ha, scale of 0 to 10 where 0 is no effect and 10 is complete control
[10] = Rate 62 g/ha, Postemergence section, flood test species, scale of 0 to 10 where 0 is no effect and 10 is complete control
[11] = Rate 250 g/ha, Postemergence (flood test), scale 0 to 10, 0 is no effect, 10 is complete control
[12] = Rate 500 g/ha, listed under Postemergence (flood test species), scale 0 to 10

COc1ccccc1Cn1c(=O)on(C(=O)N(c2ccc(F)cc2)C(C)C)c1=O [Compound 143]
2: B. signalgrass plant response rating (surinam grass; [4]) | Giant foxtail plant response rating (giant foxtail; [1]) | Velvetleaf plant response rating (velvetleaf; [1]) | Velvetleaf plant response rating (velvetleaf; [6]) | Plant response rating, Velvetleaf (velvetleaf; [7]) | Velvetleaf plant response rating (velvetleaf; [8]) | Plant response rating, S. Flatsedge (smallflower flatsedge; [11])
1: Soybean plant response rating (soybean; [5]) | Cocklebur plant response rating (cocklebur; [6])
7: Giant foxtail plant response rating (giant foxtail; [8])
0: Soybean plant response rating (soybean; [2]) | Soybean plant response rating (0 to 10 scale) (soybean; [3]) | Soybean plant response rating (soybean; [4]) | B. signalgrass plant response rating (surinam grass; [1]) | B. signalgrass plant response rating (surinam grass; [2]) | B. signalgrass plant response rating (0 to 10 scale) (surinam grass; [3]) | B. signalgrass plant response rating (surinam grass; [6]) | Plant response rating, B. signalgrass (surinam grass; [7]) | Nutsedge plant response rating (purple nutsedge; [1]) | Nutsedge plant response rating (purple nutsedge; [2]) | Nutsedge plant response rating (0 to 10 scale) (purple nutsedge; [3]) | Nutsedge plant response rating (purple nutsedge; [4]) | Nutsedge plant response rating (purple nutsedge; [5]) | Nutsedge plant response rating (purple nutsedge; [6]) | Plant response rating, Nutsedge (purple nutsedge; [7]) | Nutsedge plant response rating (purple nutsedge; [8]) | Bedstraw plant response rating (bedstraw; [2]) | Bedstraw plant response rating (0 to 10 scale) (bedstraw; [3]) | Bedstraw plant response rating (bedstraw; [4]) | Bedstraw plant response rating (bedstraw; [5]) | Giant foxtail plant response rating (giant foxtail; [6]) | Wheat plant response rating (wheat; [1]) | Wheat plant response rating (wheat; [2]) | Wheat plant response rating (0 to 10 scale) (wheat; [3]) | Wheat plant response rating (wheat; [4]) | Wheat plant response rating (wheat; [5]) | Wheat plant response rating (wheat; [6]) | Plant response rating, Wheat (wheat; [7]) | Wheat plant response rating (wheat; [8]) | Rape plant response rating (rape; [1]) | Rape plant response rating (rape; [2]) | Rape plant response rating (rape; [6]) | Plant response rating, Rape (rape; [7]) | Barnyardgrass plant response rating (bamyardgrass; [10]) | Velvetleaf plant response rating (velvetleaf; [2]) | Velvetleaf plant response rating (0 to 10 scale) (velvetleaf; [3]) | Velvetleaf plant response rating (velvetleaf; [4]) | Velvetleaf plant response rating (velvetleaf; [5]) | Cocklebur plant response rating (cocklebur; [2]) | Cocklebur plant response rating (0 to 10 scale) (cocklebur; [3]) | Cocklebur plant response rating (cocklebur; [5]) | Redroot pigweed plant response rating (0 to 10 scale) (pigweed; [3]) | Wild oats plant response rating (wild oat; [1]) | Wild oats plant response rating (wild oat; [2]) | Wild oats plant response rating (wild oat; [6]) | Plant response rating, Wild oats (wild oat; [7]) | Wild oats plant response rating (wild oat; [8]) | Ducksalad plant response rating (duck salad; [9]) | Ducksalad plant response rating (duck salad; [10]) | Plant response rating, Ducksalad (duck salad; [11]) | S. Flatsedge plant response rating (smallflower flatsedge; [9]) | S. Flatsedge plant response rating (smallflower flatsedge; [10]) | Morningglory plant response rating (morningglory; [2]) | Morningglory plant response rating (0 to 10 scale) (morningglory; [3]) | Morningglory plant response rating (morningglory; [4]) | Morningglory plant response rating (morningglory; [5])
3: Blackgrass plant response rating (blackgrass; [1]) | Blackgrass plant response rating (blackgrass; [6]) | Soybean plant response rating (soybean; [1]) | Soybean plant response rating (soybean; [6]) | Giant foxtail plant response rating (giant foxtail; [2]) | Rape plant response rating (0 to 10 scale) (rape; [3]) | Rape plant response rating (rape; [8]) | Cocklebur plant response rating (cocklebur; [1]) | Plant response rating, Cocklebur (cocklebur; [7]) | Redroot pigweed plant response rating (pigweed; [6]) | Morningglory plant response rating (morningglory; [6])
9: Giant foxtail plant response rating (0 to 10 scale) (giant foxtail; [3]) | Giant foxtail plant response rating (giant foxtail; [4])
5: Blackgrass plant response rating (0 to 10 scale) (blackgrass; [3]) | Blackgrass plant response rating (blackgrass; [4]) | Plant response rating, Blackgrass (blackgrass; [7]) | Soybean plant response rating (soybean; [8]) | B. signalgrass plant response rating (surinam grass; [5]) | B. signalgrass plant response rating (surinam grass; Rate 500 g/ha, Postemergence, scale of 0 to 10 where 0 is no effect and 10 is complete control) | Bedstraw plant response rating (bedstraw; [6]) | Plant response rating, Giant foxtail (giant foxtail; [7]) | Redroot pigweed plant response rating (pigweed; [1]) | Plant response rating, Redroot pigweed (pigweed; [7]) | Wild oats plant response rating (0 to 10 scale) (wild oat; [3]) | Wild oats plant response rating (wild oat; [4]) | Wild oats plant response rating (wild oat; [5]) | Ducksalad plant response rating (duck salad; [12])
10: Giant foxtail plant response rating (giant foxtail; [5]) | Barnyardgrass plant response rating (bamyardgrass; Rate 500 g/ha, listed under Postemergence (flood test species), scale 0 to 10, 0 no effect, 10 complete control) | Redroot pigweed plant response rating (pigweed; [5])
6: Blackgrass plant response rating (blackgrass; [5]) | Bedstraw plant response rating (bedstraw; [1]) | Plant response rating, Bedstraw (bedstraw; [7]) | Rape plant response rating (rape; [5]) | Redroot pigweed plant response rating (pigweed; [8]) | Morningglory plant response rating (morningglory; [1])
8: Blackgrass plant response rating (blackgrass; [8]) | Bedstraw plant response rating (bedstraw; Rate 500 g/ha, Postemergence, scale 0 to 10, 0 no effect, 10 complete control) | Barnyardgrass plant response rating (bamyardgrass; [9]) | Plant response rating, Barnyardgrass (bamyardgrass; [11]) | S. Flatsedge plant response rating (smallflower flatsedge; [12]) | Plant response rating, Morningglory (morningglory; [7]) | Morningglory plant response rating (morningglory; [8])
4: Blackgrass plant response rating (blackgrass; [2]) | Plant response rating, Soybean (soybean; [7]) | Rape plant response rating (rape; [4]) | Cocklebur plant response rating (cocklebur; [8]) | Redroot pigweed plant response rating (pigweed; [4])
